Assays:
[1] = tested on: eggs; experiment: Stress-induced egg fragmentation (hot plate culturing); type: cell-based, mouse; details: hot plate 37° C.; for egg fragmentation: after 21 and 24 hours of culturing
Procedure: (§1) Mouse cumulus cells-egg masses harvested by the method of Example 3 were stored in TYH medium and the cumulus cells were removed by 300 μg/mL hyaluronidase treatment to recover the eggs alone. TYH medium was prepared with selenoneine at 10 nM, 100 nM, 1 μM, 10 μM and 100 μM, and incubated on a hot plate set to 37° C. Selenoneine-free THY medium was used as the control. The collected eggs were transferred to the incubated selenoneine-containing TYH medium and cultured under shielding for 12 hours, 15 hours, 18 hours, 21 hours and 24 hours, after which they were observed under a stereomicroscope and the proportion of fragmented eggs was examined (FIG. 6). The numbers of cultured eggs in each selenoneine-containing medium were 10 nM: 107, 100 nM: 161, 1 μM: 155, 10 μM: 118, 100 μM: 85 and control: 83.
Culturing by incubation on a hot plate instead of a CO2 incubator produced stress in the eggs. […] The numbers of cultured eggs in each medium were 10 nM: 63, 100 nM: 66, 1 μM: 63, 10 μM: 71, 100 μM: 54 and control: 83.
as §1, with “with ergothioneine” for “with selenoneine”, “C. Ergothioneine-free” for “C. Selenoneine-free”, “(FIG. 7).” for “(FIG. 6). The numbers of cultured eggs in each selenoneine-containing medium were 10 nM: 107, 100 nM: 161, 1 μM: 155, 10 μM: 118, 100 μM: 85 and control: 83.”
Culturing by incubation on a hot plate instead of a CO2 incubator produced stress in the eggs.

[2] = tested on: eggs; experiment: Oxidative stress test (ROS/RNS Detection Kit) in eggs; type: cell-based, mouse; details: 1 μM each; 15 hours on hot plate; vs vehicle (0.1% DMSO)
Procedure: Mouse cumulus cells-egg masses harvested by the method of Example 3 were stored in TYH medium and the cumulus cells were removed by 300 μg/mL hyaluronidase treatment to recover the eggs alone. TYH medium containing 1 μM selenoneine (SeN), TYH medium containing 1 μM ergothioneine (Erg) and TYH medium containing 1 μM ergothioneine and 1 μM ebselen (Tokyo Kasei Kogyo Co., Ltd.) (Erg+Eb) were prepared and incubated on a hot plate set to 37° C. As a control, a TYH medium (vehicle) containing the DMSO (0.1%) used to dissolve the ebselen was used. The collected eggs were transferred to incubated selenoneine-containing TYH medium and cultured under shielding for 15 hours. The reagent of a ReOIS-ID ROS/RNS Detection Kit (product of Enzo Co.) was added to the medium containing the cultured eggs, according to the manufacturer's protocol. DAPI (Wako Pure Chemical Industries, Ltd.) had already been separately added to stain the nuclei. The nuclei (DAPI) and the reactive oxygen species (ROS), reactive nitrogen species (RNS) and superoxides in the eggs were observed under a fluorescent microscope (FIG. 8A). The fluorescence intensity was calculated and graphed (FIGS. 8B to D).

[3] = tested on: mouse sperm; experiment: Sperm membrane protection (propidium iodide / Hoechst 33342 staining); type: cell-based, mouse (C57BL/6 J line)
Procedure: (§2) A sperm mass harvested from the epididymis of an 8- to 12-week-old sexually matured male mouse (C57BL/6 J line) was transferred to a drop prepared in the TYH medium. It was then returned to the plastic dish in the incubator and allowed to stand for 1 hour. After standing for 1 hour, the selenoneine prepared in Example 1 was added to a drop of sperm-containing fertilization medium to final concentrations of 10 nM, 1 μM and 100 μM (or was not added for the control), and the mixture was cultured in an incubator for 3 hours, 6 hours and 9 hours, after which the sperm were obtained. The sperm were also obtained before culturing (0 h). The nuclei of obtained sperm were stained with 2 μg/mL of propidium iodide (PI: Sigma-Aldrich Japan, KK.) and 16.2 μM of Hoechst AG 33342 (Hoechst3342: Invitrogen Corp.), and observed under a fluorescent microscope (FIG. 9A). The number of sperm whose nuclei were unstained with propidium iodide was divided by the number of sperm whose nuclei were stained with Hoechst AG, to calculate the proportion of sperm which retained membranes (FIG. 9B).
Hoechst AG is cell membrane-permeable and can stain all sperm nuclei, whereas propidium iodide is membrane-impermeable and can only stain the nuclei of dead sperm or sperm that have damaged membranes. Therefore, the number of sperm whose nuclei were not stained with propidium iodide but were stained only by Hoechst AG represents the number of normal sperm which retained their membranes.
as §2, with “(Hoechst3342: distributed by” for “(Hoechst3342:”, “microscope.” for “microscope (FIG. 9A).”, “9C).” for “9B).”

[4] = tested on: fertilized eggs; experiment: Fertilized egg fragmentation after treatment of sperm, in vitro fertilization; type: cell-based, mouse (C57BL/6 J line); details: sperm incubated 6 h with 100 nM, 24 h after fertilization; for fragmented embryos: vs untreated control
Procedure: In the same manner as Example 2, sperm incubated for 6 hours in selenoneine-containing TYH medium (final concentration: 100 nM) were separated off with the medium and washed with TYH medium that had been previously incubated at 37° C. in a 5% CO2 atmosphere, after which the washed sperm were separated off and added to TYH medium containing cumulus cells-egg masses. After 24 hours had passed, the fertilization rate was measured and the numbers of normal 2-cell stage embryos and fragmented embryos were counted. For measurement of the fertilization rate, second polar body release and the presence or absence of cell nuclei in the split bodies of each of the 2-cell stage embryos were visually observed in the bright field of a stereomicroscope, and normal 2-cell stage embryos and fragmented embryos were likewise observed in the bright field of a stereomicroscope.
The inhibiting effect of ergothioneine treatment on fragmentation of fertilized eggs was examined in the same manner as the selenoneine treatment of sperm in Example 3, but using commercially available ergothioneine (final concentration: 100 nM) instead of selenoneine (FIG. 5). No difference in the proportion of 2-cell stage embryos was found between the ergothioneine treatment and selenoneine treatment (FIG. 5A).

[5] = tested on: fertilized eggs; experiment: Fertilized egg fragmentation after treatment of eggs, in vitro fertilization; type: cell-based, mouse (C57BL/6 J line); details: eggs cultured with 100 nM; 24 h after sperm addition; vs control
Procedure: Female mice (C57BL/6 J line: 8- to 12-week-old) were treated for superovulation by the following procedure, and the eggs were harvested.
1. Animal serotropin (PMSG, ASKA Pharmaceutical Co., Ltd.) and animal gonadotropin (hCG, ASKA Pharmaceutical Co., Ltd.) were dissolved in physiological saline to […]. 2. The mice were intraperitoneally administered PMSG at 0.1 mL(5 units)/mouse, and after 48 hours they were intraperitoneally administered hCG at 0.1 mL (5 units)/mouse. 3. After hCG administration, the cumulus cells and egg masses were taken through the fallopian tubes of the mice at 14 to 16 hours.
The cumulus cells and egg masses harvested from the fallopian tubes of the superovulated mice were transferred to a drop of 100 μL TYH medium that had been previously incubated in 5% CO2 at 37° C., and allowed to stand in the incubator.
The harvested eggs were cultured for 2 hours in TYH medium, and then the 1 μL selenoneine (10 μM) solution prepared in Example 1 was added to the TYH medium drop (or not added for the control), and further culturing was carried out for 2 hours with a final concentration of 100 nM selenoneine in the medium. […] After 24 hours had passed in the presence of selenoneine, the fertilization rate was measured and the numbers of normal 2-cell stage embryos and fragmented embryos were counted. […]

[6] = tested on: mouse sperm; experiment: Sperm motility test (CASA); type: cell-based, mouse (C57BL/6 J line); details: 1 μL of 10 μM added to 100 μL TYH drop; 3 h and 6 h incubation; vs control
Procedure: A 100 μL drop of TYH medium was prepared in a plastic dish, and liquid paraffin was laid over it until the drop was completely covered. The plastic dish was then allowed to stand for 16 hours in an incubator set to 5% CO2, 37° C. The TYH medium drop on the plastic dish was used for a sperm motility test and fertilization test. A sperm mass harvested from the epididymis of a 8- to 12-week-old sexually matured male mouse (C57BL/6 J line) was transferred to a drop prepared in the TYH medium. It was then returned to the plastic dish in the incubator and allowed to stand for 1 hour. After standing for 1 hour, 1 μL of selenoneine (10 μM) prepared in Example 1 was added to a drop of sperm-containing fertilization medium (or not added for the control), and the mixture was allowed to stand in an incubator. After incubation for 3 hours, the sperm motility was measured using CASA, and the proportion of sperm was measured, dividing it into motile sperm and progressive sperm (FIGS. 2A and B). After incubation for 6 hours, the proportion of sperm was then measured with similar division based on sperm motility (VCL) (FIGS. 2C and D).

[7] = 10 nM to 100 μM, culturing 3, 6 and 9 hours
[8] = 100 μM, after culturing for 9 hours, p<0.05

## C[N+](C)(C)[C@@H](Cc1c[nH]c(=S)[nH]1)C(=O)[O-] [ergothioneine]
[1]; 10 nM to 10 μM in TYH medium
  egg fragmentation: inhibition seen
[1]; 1 μM in TYH medium, p<0.05
  egg fragmentation: significantly inhibited
[2]
  reactive nitrogen species (RNS) in eggs: no variation
  reactive oxygen species (ROS) in eggs: increased significantly
  superoxides in eggs: No change
[3]; [7]
  proportion of sperm which retained membranes: membrane-protecting effect
[3]; [8]
  proportion of sperm which retained membranes: significantly protected
[4]; washed
  fragmented embryos: reduced compared to the untreated control
[4]
  proportion of 2-cell stage embryos, ergothioneine treatment versus selenoneine treatment: No difference

## C[N+](C)(C)[C@@H](Cc1cnc([Se-])[nH]1)C(=O)O [selenoneine]
[1]; 100 nM, 1 μM and 10 μM in TYH medium, p<0.05
  degree of egg fragmentation: significantly inhibited
[5]
  fragmented embryos: no fragmented embryos
  proportion of 2-cell stage embryos: no difference
[2]
  reactive nitrogen species (RNS) in eggs: significant reduction
  reactive oxygen species (ROS) in eggs: increased significantly
  superoxides in eggs: No change
[6]
  sperm motility (proportion of motile sperm and progressive sperm): No effect on sperm motility
[3]; [7]
  proportion of sperm which retained membranes: membrane-protecting effect
[3]; [8]
  proportion of sperm which retained membranes: significantly protected
[4]; washed, vs control
  proportion of 2-cell stage embryos: no difference
[4]; washed
  fragmented embryos: No fragmented embryos

— US20230091310A1, “Inhibitor of Fertilized Egg Fragmentation” (priority 2019, published 2023)
